Data set [1] deals with HLO microarrays (iPSC-derived human liver organoids). Briefly: cells. The protocol:
HLO microarrays were exposed to seven‐day repeated‐dose treatment of Chlorpromazine and Flucloxacillin across five half‐log‐spaced concentrations, with vehicle‐treated wells serving as controls. Following treatment, cell viability was assessed by quantifying total cellular ATP content using the CellTiter‐Glo assay, while cytotoxicity was determined by counting DRAQ7‐positive nuclei (dead cells) in organoids. Hepatic functionality was further evaluated by measuring albumin secretion in the culture supernatant via ELISA (Figure 2A).
Chlorpromazine (Sigma) and Streptomycin (MCE) were dissolved in DMSO, and 5–7 serial dilutions of 200 × stock solutions were prepared alongside corresponding vehicle controls (0.5% DMSO). Aliquots were frozen to ensure consistency across experiments. On the day of treatment, aliquots were thawed and diluted in liver maturation medium to achieve final working concentrations. Flucloxacillin (Sigma) was freshly prepared in liver maturation medium immediately prior to each dosing. HLO microarrays were treated over a 7‐day period, with a single re‐dosing and media refreshment on day 3. The highest concentrations tested for all compounds were 1000 µM.
Cell viability was assessed on day 7 using the CellTiter‐Glo 3D Cell Viability Assay (Promega, Cat. G9682). Luminescence was recorded using a Spectra Max iD3 microplate reader (Molecular Devices) following the manufacturer's recommended settings. Viability data from compound‐treated HLOs were normalized to the corresponding vehicle controls on the same plate.
Dose‐response curves and IC50 values were determined by nonlinear regression of log‐transformed compound concentrations (6‐8 point serial dilutions including vehicle) against normalized viability data. Curve fitting was performed using a variable Hill slope and constraining the top and bottom of the curve to 100 and 0, respectively (GraphPad Prism, GraphPad Software, La Jolla, CA, USA). To contextualize in vitro toxicity data with human exposure levels, Margin of Safety (MOS) values were calculated as the ratio of the in vitro IC50 to the compound's reported clinical maximum plasma concentration (MOS = IC50 / Cmax).

Data set [2] concerns HLOs co-cultured with autologous Flucloxacillin-primed CD8+ T cells. Nature of the data set: Autologous HLO - CD8+ T cell co-culture, immune-mediated hepatocyte injury. The data set is classed as cell-based, human. The protocol:
To model immune‐mediated liver injury, Flucloxacillin‐primed CD8⁺ T cells from three HLA‐B*57:01 carrier and three HLA‐B*57:01 non‐carrier donors were co‐cultured with autologous HLOs pre‐treated with Flucloxacillin (Figure 5A). Co‐cultures with unprimed CD8⁺ T cells served as controls to exclude non‐specific T cell reactivity. HLOs were generated from iPSC lines derived from donor PBMCs and exposed to 100 µM Flucloxacillin for 72 h before initiating co‐culture. On day 23 of maturation, HLOs were co‐cultured with unprimed or Flux‐primed CD8⁺ T cells to assess immune‐mediated hepatocyte injury. Liver damage was quantified using immunofluorescence‐based detection of DRAQ7⁺ dead cells and measurement of cytokeratin‐18 (CK‐18) release, a highly specific biomarker of early‐stage DILI. CK‐18, an intermediate filament protein expressed in hepatocytes and cholangiocytes but absent in immune cells, provided greater specificity for hepatocyte death than traditional markers such as LDH or ATP.
Culture supernatants were analyzed to quantify albumin and CK18 levels using sandwich ELISA kits (Albumin, Abcam, and M65 EpiDeath CK18Diapharma) according to manufacturer's protocols. TNFα and Granzyme B secretion were measured using the Luminex Discovery Assay kit (R&D Systems/Biotechne) according to the manufacturer's protocol.
Following initial 12 day priming as described above, CD8^+ T cells were stained with CFSE (5 µM, Fisher Scientific, Catalog No. 11‐0699‐42) and resuspended in an optimized co‐culture media. This media consisted of a 1:1 mixture of complete RPMI (RPMI + 1% penicillin/streptomycin and 150 IU mL^−1 IL‐2) and modified liver maturation media (excluding HGF, dexamethasone and hydrocortisone) supplemented with 10 IU mL^−1 IL‐7 and 10 IU/ml IL‐15. Labeled CD8⁺ T cells were added to mature (day 23) HLO microarray cultures at effector‐to‐target (E:T) ratios of 1:1 and 1:5. These ratios were chosen to reflect the localized enrichment of cytotoxic lymphocytes observed during immune‐mediated liver injury, including periportal CD8⁺ T cell infiltration in flucloxacillin‐induced DILI (PMID: 24 731 753).^[ [14] ^] Prior to co‐culture, HLO were pretreated with 100 µM Flucloxacillin for 72 h. The co‐culture was maintained for 72 h with media exchanges performed every 24 h. When indicated, T cell activation was induced using anti‐CD3 (1 µg ml^−1, BioLegend) and anti‐CD28 (1 µg ml^−1, BioLegend) antibodies.

The subject of the next data set is CD8+ T cells. Nature of the data set: Monocyte-derived dendritic cell (mDC) priming assay of naïve CD8+ T cells, flow cytometry. The data set is classed as cell-based, human. From the text:
Peripheral blood samples were collected from four HLA‐B*57:01 carriers and four HLA‐B*57:01 non‐carrier donors (Figure 4B). To generate antigen‐specific CD8⁺ T cells, we employed a monocyte‐derived dendritic cell (mDC) priming assay (Figure 4A). Naïve CD8⁺ T cells and monocytes were isolated from peripheral blood mononuclear cells (PBMCs) of each donor. mDCs were differentiated using IL‐4 and GM‐CSF, followed by maturation and activation with LPS and IFN‐γ. Mature mDCs were then loaded with Flucloxacillin or media alone and used to prime naïve CD8⁺ T cells. After priming, CD8⁺ T cells (i.e., Flucloxacillin‐primed CD8^+ T cells) were expanded in the presence of a low dose of IL‐15 for 10 days, followed by CFSE labeling and re‐stimulation with freshly loaded mDCs under the same conditions. Flow cytometry was used to assess CD8⁺ T cell maturation, proliferation, and post‐priming activation. […] T cell antigen‐specific activation efficacy was evaluated using multi‐color flow cytometry with Diva and FlowJo (BD software). T cell proliferation and activation were assessed using CFSE (1 µM, ThermoFisher) for proliferation, Human TruStain FcX for Fc receptor blocking, and a panel of antibodies including CD3 (clone UCHT1), CD8 (clone 3B5), CD4 (clone RPA‐T4), CD45RO (clone UCHL1), CD107a (clone H4A3), HLA‐DR (clone TU36), CD137 (clone 4B4), and CD69 (clone FN50). […]

Data set [3] has as its system HLO microarrays (iPSC-derived human liver organoids). Nature of the data set: HLO microarray cytotoxicity, DRAQ7-positive nuclei (dead cells). The data set is classed as cell-based. Conditions: 168 h, seven-day repeated-dose treatment, Figure 2C, read-out: Cell death (% Draq7+ cells) IC50. The procedure:
HLO microarrays were exposed to seven‐day repeated‐dose treatment of Chlorpromazine and Flucloxacillin across five half‐log‐spaced concentrations, with vehicle‐treated wells serving as controls. Following treatment, cell viability was assessed by quantifying total cellular ATP content using the CellTiter‐Glo assay, while cytotoxicity was determined by counting DRAQ7‐positive nuclei (dead cells) in organoids. Hepatic functionality was further evaluated by measuring albumin secretion in the culture supernatant via ELISA (Figure 2A). Chlorpromazine (Sigma) and Streptomycin (MCE) were dissolved in DMSO, and 5–7 serial dilutions of 200 × stock solutions were prepared alongside corresponding vehicle controls (0.5% DMSO). Aliquots were frozen to ensure consistency across experiments. On the day of treatment, aliquots were thawed and diluted in liver maturation medium to achieve final working concentrations. […] Dose‐response curves and IC50 values were determined by nonlinear regression of log‐transformed compound concentrations (6‐8 point serial dilutions including vehicle) against normalized viability data. […] To contextualize in vitro toxicity data with human exposure levels, Margin of Safety (MOS) values were calculated as the ratio of the in vitro IC50 to the compound's reported clinical maximum plasma concentration (MOS = IC50 / Cmax).

Data set [4] shares this test system. Nature of the data set: Albumin secretion of HLO microarrays in culture supernatant (ELISA). The data set is classed as cell-based. Conditions: 168 h, seven-day repeated-dose treatment, Figure 2E, read-out: Albumin release (% of control) IC50. An excerpt:
Hepatic functionality was further evaluated by measuring albumin secretion in the culture supernatant via ELISA (Figure 2A). […] Aliquots were frozen to ensure consistency across experiments. On the day of treatment, aliquots were thawed and diluted in liver maturation medium to achieve final working concentrations. Flucloxacillin (Sigma) was freshly prepared in liver maturation medium immediately prior to each dosing.

The conditions of data set [5]: reported clinical Cmax; cited from earlier work.
The mark [6] stands for this setting: Homo sapiens, 168 h, read-out: Cell Viability (% of control) IC50, ATP-based, seven-day repeated-dose treatment, Figure 2D.
Where [7] appears, read: Homo sapiens, read-out: average IC50, average across three independent iPSC-derived HLO lines (donors), Figure S2.

Regarding `Cc1onc(-c2c(F)cccc2Cl)c1C(=O)N[C@@H]1C(=O)N2[C@@H]1SC(C)(C)[C@@H]2C(=O)O` [Flucloxacillin], the “cytotoxicity at clinically relevant exposures” value in data set [1] is “no cytotoxicity”. Moreover, the concentration for half-maximal inhibition (IC50) in data set [1] (setting [6]), in data set [3] and in data set [4] was over 1000 µM in each case. In data set [2] (primed CD8+ T cells from HLA-B*57:01 carrier donors 534 and 622), the “secretion of TNF-α and Granzyme B” value is on record as “increased secretion”. Besides, the CK-18 release entry in data set [2] (primed CD8+ T cells from HLA-B*57:01 carrier donors 534 and 622, HLOs pre-treated with 100 µM for 72 h) is “significantly elevated”. The “increase in DRAQ7+ cell death compared to T cell-free controls” value in data set [2] (primed CD8+ T cells from HLA-B*57:01 carrier donors 534 and 622, HLOs pre-treated with 100 µM for 72 h, 72 h co-culture) stood at 4 fold. Also, in data set [2] (primed T cells from weak-responder HLA-B*57:01 carriers and all non-carrier donors), the “hepatocyte death or CK-18 release” value was “failed to induce hepatocyte death”. Moreover, the “CD8+ T cell response to priming” value in the data set with CD8+ T cells (HLA-B*57:01 non-carrier donors) is given as “did not exhibit a comparable response”. Besides, in the data set on CD8+ T cells (two of four HLA-B*57:01-positive donors (robust responders), DCs pulsed with 1000 µM), the “increase in T cell proliferation (CFSElow cells) and activation marker expression relative to media-alone priming” value is reported as “over 2 fold”. The Cmax in data set [5] was about 31 µM.
Turning to `[H]/N=C(/N)N[C@H]1[C@H](O)[C@@H](O)[C@H](O[C@@H]2O[C@@H](C)[C@](O)(C=O)[C@H]2O[C@@H]2O[C@@H](CO)[C@H](O)[C@@H](O)[C@@H]2NC)[C@@H](N/C(N)=N\[H])[C@@H]1O` [Streptomycin], the “cytotoxicity at clinically relevant exposures” value in data set [1] is on record as “no cytotoxicity”. Moreover, the half-maximal inhibitory concentration (IC50) in data set [1] (setting [7]) came to 341 µM. For the same compound, in data set [5], the Cmax is about 72.2 µM.
With `CN(C)CCCN1c2ccccc2Sc2ccc(Cl)cc21` [Chlorpromazine], the IC50 in data set [1] (setting [6]) was found to be 14.5 µM; in data set [1] (setting [7]), 11.1 µM; in data set [1] (read-out: Cell Viability (% of control) IC50, ATP-based, seven-day repeated-dose treatment, Figure 2D), 14.4 µM; in data set [3], 19.7 µM; in data set [4] it was 6.36 µM. Further, the “margin of safety (MOS = IC50 / Cmax)” value in data set [1] (human, 7 days) is reported as “≈ 15.3”. The Cmax in data set [5] is about 0.94 µM.

Source of the values: article PMC12631937, “Autologous Organoid‐T Cell Co‐Culture Platform for Modeling of Immune‐Mediated Drug‐Induced Liver Injury” (Advanced Science, 2025).
